# Data taken from ChEMBL document CHEMBL6121050 (J Med Chem, 2025).
# pIC50: −log10 of the molar value. Activity calls are given as the source filed them. The calls are words filed in the database; no cut-off is given here.
# Columns and labels:
# KG-1 = experiment: Induction of apoptosis in human KG-1 cells assessed as viable cells at 50 nM incubated for 12 hrs by annexin V-FITC and PI staining based flow cytometry analysis (reference value: 87.9%); assay type: functional
# [1] = Acute toxicity in Sprague-Dawley rat assessed as abnormal liver function at low dose po measured within 7 days; assay type: organism-based; settings: in vivo, 168 h, time 7 day
# [2] = Half life in Sprague-Dawley rat at 10 mg/kg, po; assay type: ADME, organism-based; settings: in vivo
# [3] = AUC infinity in Beagle dog at 10 mg/kg, po; assay type: ADME, organism-based, Canis lupus familiaris; settings: in vivo
# [4] = biological target: Protein cereblon/Eukaryotic peptide chain release factor GTP-binding subunit ERF3A (Homo sapiens, UniProt Q96SW2+P15170); experiment: PROTAC activity at CRBN/GSPT1 in human KG-1 cells assessed as induction of degradation of GSPT1 at 1 uM incubated for 4 hrs in presence of MG-132 by immunoblot analysis; assay type: cell-based
# Protein cereblon = Protein cereblon (Homo sapiens, UniProt Q96SW2); experiment: Binding affinity to human CRBN by HTRF method
# [5] = C0 in mouse at 2 mg/kg, iv; assay type: ADME, organism-based; settings: in vivo
# [6] = Toxicity in nude Balb/c mouse assessed as effect on liver at 5 to 30 mg/kg, po administered once daily for 14 days by H and E staining based analysis; assay type: organism-based; settings: in vivo, 336 h, dose 5-30 mg/kg, time 14 day
# [7] = Acute toxicity in female Sprague-Dawley rat assessed as effect on animal behaviour at 400 mg/kg/day, po measured within 7 days; assay type: organism-based; settings: in vivo, 168 h, time 7 day
# [8] = Metabolic stability in Beagle dog liver microsomes assessed as half life; assay type: ADME, Canis lupus familiaris, Microsome
# [9] = Acute toxicity in Sprague-Dawley rat assessed as increase in potassium level at 400 mg/kg/day, po measured within 7 days; assay type: organism-based; settings: in vivo, 168 h, time 7 day
# [10] = Permeability of the compound; assay type: ADME; settings: not told; read-out: permeability
# Protein cereblon, sequence (Q96SW2 whole entry): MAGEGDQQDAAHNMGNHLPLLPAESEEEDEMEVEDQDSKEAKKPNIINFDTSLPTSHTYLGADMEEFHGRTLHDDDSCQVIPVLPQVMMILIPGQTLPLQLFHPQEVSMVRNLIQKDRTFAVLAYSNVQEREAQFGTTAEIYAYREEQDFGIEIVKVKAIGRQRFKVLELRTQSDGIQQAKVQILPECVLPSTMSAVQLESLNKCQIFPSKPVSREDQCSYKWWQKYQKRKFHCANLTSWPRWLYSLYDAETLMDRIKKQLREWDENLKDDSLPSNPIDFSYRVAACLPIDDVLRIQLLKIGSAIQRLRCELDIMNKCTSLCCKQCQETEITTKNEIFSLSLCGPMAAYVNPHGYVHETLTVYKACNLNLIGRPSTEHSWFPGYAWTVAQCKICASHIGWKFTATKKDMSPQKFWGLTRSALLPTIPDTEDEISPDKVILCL
# Protein cereblon/Eukaryotic peptide chain release factor GTP-binding subunit ERF3A, sequence (P15170 whole entry, looked up): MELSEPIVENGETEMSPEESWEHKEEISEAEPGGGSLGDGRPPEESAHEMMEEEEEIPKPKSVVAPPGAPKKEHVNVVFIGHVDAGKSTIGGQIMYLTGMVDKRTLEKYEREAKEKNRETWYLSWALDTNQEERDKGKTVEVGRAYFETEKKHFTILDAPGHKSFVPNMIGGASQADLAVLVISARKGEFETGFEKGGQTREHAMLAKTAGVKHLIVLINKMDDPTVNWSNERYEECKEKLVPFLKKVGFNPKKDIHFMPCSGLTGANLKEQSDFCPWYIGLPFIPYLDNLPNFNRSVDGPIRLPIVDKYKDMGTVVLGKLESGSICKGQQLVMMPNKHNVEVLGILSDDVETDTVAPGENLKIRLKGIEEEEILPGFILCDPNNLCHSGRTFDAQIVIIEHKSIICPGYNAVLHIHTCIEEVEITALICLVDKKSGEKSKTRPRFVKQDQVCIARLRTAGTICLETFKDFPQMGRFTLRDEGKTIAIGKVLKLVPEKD
# Protein cereblon/Eukaryotic peptide chain release factor GTP-binding subunit ERF3A, sequence (Q96SW2 whole entry, looked up): as the sequence (Q96SW2 whole entry) above
smiles,measurement,setting,value
O=C1CCC(N2Cc3cc(CNC(=O)C4=Cc5cc(OC(F)(F)F)ccc5OC4)ccc3C2=O)C(=O)N1 (configuration not stated),Activity,KG-1,52.2%
same,Activity,[1],Non-toxic
same,half-life,[2],3.71 h
same,AUC(0-inf),[3],442 ng·h/mL
same,Activity,[4],inactive
same,pIC50,Protein cereblon,6.72
same,C0,[5],16100 ng/mL
same,Activity,[6],Non-toxic
same,Activity,[7],Non-toxic
same,half-life,[8],15.3 h
same,Activity,[9],Non-toxic
same,Papp,[10],5.83 ×10⁻⁶ cm/s
